Data as given in the supplement of paper PMC10307832.

What was measured:
Experiment in all cases: relative viability (nuclei count vs DMSO), 5 days (fraction); higher = more cells survive
Bemcentinib + Phenformin = compound: Nc1nc(Nc2ccc3c(c2)CC[C@@H](N2CCCC2)CC3)nn1-c1cc2c(nn1)-c1ccccc1CCC2 [Bemcentinib] + N=C(N)NC(=N)NCCc1ccccc1 [Phenformin] (partner 250 µM)
How it was run: (§1)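 Dosing by pin tool came one day after lung cancer cell lines were seeded in 1536-well plates, using either one drug or a fixed anchor-drug dose plus five library-drug doses (not always all listed) in √10 steps. After 5 days, nuclei were counted on 4× images. Relative viability is treated-well nuclei count divided by vehicle-well nuclei count, and values are medians of duplicate plates.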

[1] = compound: CC1=CC=C(C=C1)C(=O)CN2C3=C(CCCC3)SC2=N [Pifithrin_alpha] + COc1cccc2cc(-c3nc([C@H]4CC[C@H](C(=O)O)CC4)n4ncnc(N)c34)[nH]c12 [OSI-027] (partner 0.5 µM)
How it was run: as §1

Axitinib + AZD7762 = compound: CNC(=O)c1ccccc1Sc1ccc2c(/C=C/c3ccccn3)n[nH]c2c1 [Axitinib] + NC(=O)Nc1cc(-c2cccc(F)c2)sc1C(=O)N[C@H]1CCCNC1 [AZD7762] (partner 0.2 µM)
How it was run: as §1

Bemcentinib + OSI-027 = compound: Nc1nc(Nc2ccc3c(c2)CC[C@@H](N2CCCC2)CC3)nn1-c1cc2c(nn1)-c1ccccc1CCC2 [Bemcentinib] + COc1cccc2cc(-c3nc([C@H]4CC[C@H](C(=O)O)CC4)n4ncnc(N)c34)[nH]c12 [OSI-027] (partner 0.5 µM)
How it was run: as §1

Cell Line | relative viability (Bemcentinib + Phenformin; first compound 0.04 µM) | relative viability (Bemcentinib + Phenformin; first compound 0.1265 µM) | relative viability (Bemcentinib + Phenformin; first compound 0.4 µM) | relative viability (Bemcentinib + Phenformin; first compound 1.265 µM) | relative viability (Bemcentinib + Phenformin; first compound 4 µM) | relative viability ([1]; first compound 1 µM) | relative viability ([1]; first compound 3.162 µM) | relative viability ([1]; first compound 10 µM) | relative viability ([1]; first compound 31.62 µM) | relative viability ([1]; first compound 100 µM) | relative viability (Axitinib + AZD7762; first compound 0.005 µM) | relative viability (Axitinib + AZD7762; first compound 0.01581 µM) | relative viability (Axitinib + AZD7762; first compound 0.05 µM) | relative viability (Axitinib + AZD7762; first compound 0.1581 µM) | relative viability (Axitinib + AZD7762; first compound 0.5 µM) | relative viability (Bemcentinib + OSI-027; first compound 0.04 µM) | relative viability (Bemcentinib + OSI-027; first compound 0.1265 µM) | relative viability (Bemcentinib + OSI-027; first compound 0.4 µM) | relative viability (Bemcentinib + OSI-027; first compound 1.265 µM) | relative viability (Bemcentinib + OSI-027; first compound 4 µM)
NCI-H460 | 0.552 | 0.7 | 0.522 | 0.607 | 0.568 | 0.613 | 0.541 | 0.397 | 0.274 | 0.48 | 0.693 | 0.576 | 0.757 | 0.636 | 1.02 | 0.73 | 1.2 | 0.827 | 0.686 | 0.851
NCI-H322M | 0.726 | 0.804 | 0.739 | 0.862 | 0.833 | 0.536 | 0.531 | 0.503 | 0.419 | 0.508 | 0.564 | 0.525 | 0.579 | 0.548 | 0.612 | 0.585 | 0.596 | 0.597 | 0.621 | 0.597
HCC-827 | 0.413 | 0.375 | 0.43 | 0.431 | 0.419 | 0.807 | 0.912 | 0.823 | 0.713 | 0.774 | 0.195 | 0.129 | 0.176 | 0.212 | 0.214 | 0.816 | 0.927 | 0.862 | 0.84 | 0.848
HOP-62 | 0.694 | 0.707 | 0.834 | 0.704 | 0.645 | 0.836 | 0.811 | 0.955 | 0.635 | 0.921 | 0.654 | 0.548 | 0.592 | 0.728 | 0.97 | 0.958 | 0.904 | 0.845 | 0.853 | 0.9
NCI-H2023 | 0.398 | 0.445 | 0.424 | 0.423 | 0.365 | 0.305 | 0.3 | 0.204 |  | 0.213 |  |  |  |  |  | 0.323 | 0.511 | 0.462 | 0.419 | 0.445
NCI-H441 | 0.831 | 0.919 | 1.04 | 1.04 | 0.948 | 0.524 | 0.662 | 0.614 |  | 0.542 | 1.08 | 1.02 | 1.24 | 1.09 | 1.59 | 0.583 | 0.695 | 0.765 | 0.558 | 0.659
NCI-H2347 | 0.423 | 0.447 | 0.329 | 0.364 | 0.334 | 0.467 | 0.467 | 0.431 | 0.328 | 0.367 | 0.828 | 0.763 | 0.792 | 0.723 | 0.873 | 0.413 | 0.454 | 0.386 | 0.429 | 0.422
NCI-H1648 |  |  |  |  |  | 0.226 | 0.277 | 0.234 | 0.235 | 0.252 | 0.725 | 0.57 | 0.666 | 0.733 | 0.682 | 0.245 | 0.271 | 0.275 | 0.245 | 0.283
UMC-11 | 0.324 | 0.355 | 0.365 | 0.314 | 0.312 | 0.537 | 0.518 | 0.56 | 0.485 | 0.456 |  |  |  |  |  | 0.466 | 0.528 | 0.504 | 0.516 | 0.473
NCI-H1650 | 0.368 | 0.477 | 0.583 | 0.43 | 0.394 |  | 0.532 | 0.43 | 0.494 | 0.411 |  |  |  |  |  | 0.59 | 0.913 | 0.624 | 0.72 | 0.724
NCI-H1703 |  |  |  |  |  |  |  |  |  |  | 0.135 | 0.11 | 0.118 | 0.121 | 0.125 |  |  |  |  | 
NCI-H661 | 0.268 | 0.263 | 0.28 | 0.271 | 0.286 | 0.691 | 0.707 | 0.678 | 0.514 | 0.579 |  |  |  |  |  | 0.716 | 0.719 | 0.762 | 0.775 | 0.745
SK-LU-1 | 0.521 | 0.633 | 0.485 | 0.548 | 0.6 | 0.353 | 0.353 | 0.354 |  | 0.3 |  |  |  |  |  | 0.37 | 0.382 | 0.35 | 0.369 | 0.331
NCI-H2228 | 0.157 | 0.329 | 0.395 | 0.346 | 0.295 | 0.589 | 0.574 | 0.526 | 0.392 | 0.283 |  |  |  |  |  | 0.186 | 0.599 | 0.745 | 0.575 | 0.775
NCI-H1623 | 0.607 | 0.497 | 0.621 | 0.641 | 0.563 | 0.401 | 0.5 | 0.38 | 0.331 | 0.324 |  |  |  |  |  | 0.401 | 0.418 | 0.424 | 0.45 | 0.502
SW 1573 | 0.415 | 0.373 | 0.363 | 0.368 | 0.365 | 0.662 | 0.601 | 0.572 | 0.422 | 0.76 |  |  |  |  |  | 0.609 | 0.731 | 0.677 | 0.589 | 0.661
SK-MES-1 | 0.687 | 0.691 | 0.652 | 0.758 | 0.667 | 0.575 | 0.59 | 0.527 | 0.396 | 0.511 |  |  |  |  |  | 0.645 | 0.595 | 0.666 | 0.799 | 0.69
COR-L 105 | 0.529 | 0.432 | 0.561 | 0.494 | 0.45 | 0.6 | 0.667 | 0.591 | 0.64 | 0.495 |  |  |  |  |  | 0.521 | 0.642 | 0.571 | 0.713 | 0.726
NCI-H1563 | 0.671 | 0.742 | 0.671 | 0.671 | 0.618 | 0.776 | 0.81 | 0.76 | 0.704 | 0.716 |  |  |  |  |  | 0.783 | 0.812 | 0.819 | 0.766 | 0.757
NCI-H520 | 0.573 | 0.606 | 0.608 | 0.733 | 0.62 | 0.297 | 0.244 | 0.259 | 0.288 | 0.25 |  |  |  |  |  | 0.237 | 0.24 | 0.262 | 0.247 | 0.258
